Consider three compounds from patent publication US4605674A, “Substituted acetophenones and compositions containing them” (Hoffmann-La Roche Inc., priority 1979, dated 1986).

≈ marks a conversion by molar mass, not a printed value. Read-outs that look alike come from different tables or passages of the source.

Series [1] concerns HeLa cells. As to the kind of experiment: Cytotoxic symptoms in HeLa cells in the viral replication test. The series is classed as cell-based. On the procedure: Effect of 2'-hydroxy-4,4',6'-trimethoxychalcone on the replication of rhinovirus HGP in HeLa cells was tested. Monolayers of HeLa cells (4×10^5) to which 2'-hydroxy-4,4',6'-trimethoxychelcone at various concentrations had been added were infected with rhinovirus HGP (4×10^4 PFU) for 60 minutes. Thereafter, the cells were washed with Eagle's minimum essential medium and further cultured with said medium containing 2% calf serum, 1% tryptose phosphate broth, 100 μg/ml of streptomycin sulfate and 20 units/ml of penicillin G. The total yield of the virus replicated in the culture medium was assayed 2 days after infection.
In the same manner the effect of 4'-ethoxy-2'-hydroxy-4,6'-dimethoxychalcone on the replication of rhinovirus type 21 in HeLa cells was tested.

Series [2] concerns rhinovirus HGP. As to the kind of experiment: Inhibition of viral cytopathogenic effect (c.p.e.) of rhinovirus HGP in HeLa cells. Type of series: cell-based, human rhinoviruses. The settings on record: Enterovirus, HeLa, 48 h, read-out: IC50 against rhinovirus HGP (concentration inhibiting the viral c.p.e. by 50%). On the procedure:
A suspension of HeLa cells (6×10^4) was mixed with rhinovirus HGP (3×10^3 plaque forming units, PFU) and was plated in a microtest plate containing the compounds to be tested serially diluted. The cells were then cultured with Eagle's minimum essential medium containing 2% calf serum, 1% tryptose phosphate broth, 100 μg/ml of streptomycin sulfate and 20 unit/ml of penicillin G. Viral c.p.e. (cytopathogenic effect) was observed by a microscope after 2 days culture at 33° C.
The antiviral activity of the tested compounds is expressed by the concentration inhibiting the viral c.p.e. by 50% when compared to the control culture (IC50).
In general terms: Cytopathic effects are the visible damage that an infection or toxin causes in cultured cells.

The nature of series [3]: in vivo. The settings on record: mouse, DDY mice, single dose. On the procedure: ^(1) DDY mice weighing 15-20 g were treated with a single dose of the
compound. Survivors were recorded on day 21.
^(2) Compounds were dissolved in dimethylsulfoxide.
^(3) Compounds were suspended with solution of 0.5% carboxymethyl

Series [4] relates to Coxsackievirus B1. As to the kind of experiment: In vivo antiviral activity against lethal infection with Coxsackievirus B1 in mice. Details: species or system DDY mice. The settings on record: up to 21 days. The method, then:
The activity of the compounds against lethal infection with Coxsackievirus B1 was tested in mice. DDY mice weighing about 15 g were infected intraperitoneally with about the tenfold LD50 dose of the virus. The infected mice were treated 9 times with the compounds either orally 0, 2, 5, 18, 24, 42, 48, 66 and 72 hours or intraperitoneally 1, 2, 4, 18 and 28 hours after infection. The survivals were recorded up to 21 days.
Non-treated (controls) mice died at 3 to 5 days after infection.

Setting [5] is: ip, i.p., dissolved in dimethylsulfoxide, day 21, read-out: LD50 i.p.
[6] abbreviates: po, p.o., suspended in 0.5% carboxymethyl cellulose, day 21, read-out: LD50 p.o.
Setting [7] is: 20 mg/kg × 9, p.o., control 20%.
[8] abbreviates: 40 mg/kg × 9, p.o., control 20%.

One may read the LD50 as the dose at which mortality reaches 50%. As to `CCOc1cc(O)c(C(=O)/C=C/c2ccc(OC)cc2)c(OC)c1` [4'-ethoxy-2'-hydroxy-4,6'-dimethoxychalcone], the cytotoxic symptom result in series [1] (0.03 μg/ml, rhinovirus type 21 test) is listed as “without showing any cytotoxic symptom”. The IC50 in series [2] was 2 to 6 ng/mL (≈ 0.00609 to 0.0183 µM). In addition, the LD50 at 504 h in series [3] (setting [5]) is over 1000 mg/kg; in series [3] (setting [6]), over 5000 mg/kg.

With `COc1ccc(/C=C/C(=O)c2c(OC)cc(OC)cc2OC(C)=O)cc1` [2'-acetoxy-4,4',6'-trimethoxychalcone], the IC50 in series [2] amounted to 6 ng/mL (≈ 0.0168 µM). Besides, the Survival is on record as 40% in series [4] (setting [7]); 50% in series [4] (40 mg/kg × 5, i.p., control 0%); 70% in series [4] (setting [8]). The values for the LD50 at 504 h in series [3] (setting [5]) and in series [3] (setting [6]) were over 1000 mg/kg and over 5000 mg/kg, respectively.

For the compound `COc1ccc(/C=C/C(=O)c2c(O)cc(OC)cc2OC)cc1` [2'-hydroxy-4,4',6'-trimethoxychalcone], the cytotoxic symptom result in series [1] (0.1-1.0 μg/ml, rhinovirus HGP test) was “without showing any cytotoxic symptom”. Further, in series [2], the IC50 worked out at 10 ng/mL (≈ 0.0318 µM). The Survival in series [4] (setting [7]) stood at 40%; in series [4] (setting [8]), 60%. In addition, the values for the LD50 at 504 h in series [3] (setting [5]) and in series [3] (setting [6]) were over 1000 mg/kg and over 5000 mg/kg, respectively.
